Measured values as given in the supplement of paper PMC10307832.

Tests used:
Test in all cases: relative viability (nuclei count vs DMSO), 5 days (fraction); higher = more cells survive
[1] = compound: Cc1ccc(NC(=O)c2ccc(CN3CCN(C)CC3)cc2)cc1Nc1nc(-c2cccnc2)cs1 [Masitinib] + Cc1nc(Nc2ncc(C(=O)Nc3c(C)cccc3Cl)s2)cc(N2CCN(CCO)CC2)n1 [Dasatinib] (partner 0.075 µM)
In short: (§1)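 Five library-drug doses in √10 steps were combined with a fixed anchor-drug dose, or a single drug was given alone, by pin tool to lung cancer cell lines in 1536-well plates the day after seeding. Nuclei were stained and counted after 5 days. Relative viability is the nuclei count in treated wells over that in vehicle wells, taken as the median of duplicate plates.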

[2] = compound: CC1=CC(=CC=C1)NC2=NC(=CS2)C3=CC=NC=C3 + CC(C)C[C@H](NC(=O)[C@H](Cc1ccccc1)NC(=O)c1cnccn1)B(O)O [Bortezomib] (partner 0.002 µM)
In short: as §1

[3] = compound: CC1=CC(=CC=C1)NC2=NC(=CS2)C3=CC=NC=C3 + Nc1ncn([C@H]2C[C@H](O)[C@@H](CO)O2)c(=O)n1 [Decitabine] (partner 2 µM)
In short: as §1

[4] = compound: Cc1ccc(NC(=O)c2ccc(CN3CCN(C)CC3)cc2)cc1Nc1nc(-c2cccnc2)cs1 [Masitinib] + CCNC(=O)c1noc(-c2cc(C(C)C)c(O)cc2O)c1-c1ccc(CN2CCOCC2)cc1 [Luminespib] (partner 0.01 µM)
In short: as §1

Cell Line: HCC-15
- relative viability ([1]; first compound 0.01 µM): 0.516
- relative viability ([1]; first compound 0.03162 µM): 0.617
- relative viability ([1]; first compound 0.1 µM): 0.68
- relative viability ([1]; first compound 0.3162 µM): 0.512
- relative viability ([1]; first compound 1 µM): 0.59
- relative viability ([2]; first compound 0.08 µM): 0.963
- relative viability ([2]; first compound 0.253 µM): 1.03
- relative viability ([2]; first compound 0.8 µM): 0.973
- relative viability ([2]; first compound 2.53 µM): 1.02
- relative viability ([2]; first compound 8 µM): 0.753
- relative viability ([3]; first compound 0.08 µM): 0.621
- relative viability ([3]; first compound 0.253 µM): 0.662
- relative viability ([3]; first compound 0.8 µM): 0.58
- relative viability ([3]; first compound 2.53 µM): 0.582
- relative viability ([3]; first compound 8 µM): 0.625
- relative viability ([4]; first compound 0.01 µM): 0.306
- relative viability ([4]; first compound 0.03162 µM): 0.389
- relative viability ([4]; first compound 0.1 µM): 0.37
- relative viability ([4]; first compound 0.3162 µM): 0.476
- relative viability ([4]; first compound 1 µM): 0.141

Cell Line: HCC-44
- relative viability ([2]; first compound 0.08 µM): 0.75
- relative viability ([2]; first compound 0.253 µM): 0.702
- relative viability ([2]; first compound 0.8 µM): 0.71
- relative viability ([2]; first compound 2.53 µM): 0.707
- relative viability ([2]; first compound 8 µM): 0.809
- relative viability ([3]; first compound 0.08 µM): 0.88
- relative viability ([3]; first compound 0.253 µM): 0.788
- relative viability ([3]; first compound 0.8 µM): 0.834
- relative viability ([3]; first compound 2.53 µM): 0.767
- relative viability ([3]; first compound 8 µM): 0.826
- relative viability ([4]; first compound 0.01 µM): 1.04
- relative viability ([4]; first compound 0.03162 µM): 1.17
- relative viability ([4]; first compound 0.1 µM): 1.08
- relative viability ([4]; first compound 0.3162 µM): 1.03
- relative viability ([4]; first compound 1 µM): 1.09

Cell Line: HCC-78
- relative viability ([1]; first compound 0.01 µM): 0.468
- relative viability ([1]; first compound 0.03162 µM): 0.312
- relative viability ([1]; first compound 0.1 µM): 0.392
- relative viability ([1]; first compound 0.3162 µM): 0.468
- relative viability ([1]; first compound 1 µM): 0.366
- relative viability ([2]; first compound 0.08 µM): 0.409
- relative viability ([2]; first compound 0.253 µM): 0.473
- relative viability ([2]; first compound 0.8 µM): 0.469
- relative viability ([2]; first compound 2.53 µM): 0.414
- relative viability ([2]; first compound 8 µM): 0.274
- relative viability ([3]; first compound 0.08 µM): 0.727
- relative viability ([3]; first compound 0.253 µM): 0.613
- relative viability ([3]; first compound 0.8 µM): 0.614
- relative viability ([3]; first compound 2.53 µM): 0.613
- relative viability ([3]; first compound 8 µM): 0.661

Cell Line: HCC-366
- relative viability ([1]; first compound 0.03162 µM): 0.654
- relative viability ([1]; first compound 0.3162 µM): 0.619
- relative viability ([1]; first compound 1 µM): 0.609
- relative viability ([2]; first compound 0.08 µM): 0.875
- relative viability ([2]; first compound 0.253 µM): 1.04
- relative viability ([2]; first compound 0.8 µM): 0.998
- relative viability ([2]; first compound 2.53 µM): 1.06
- relative viability ([2]; first compound 8 µM): 0.985
- relative viability ([3]; first compound 0.08 µM): 0.329
- relative viability ([3]; first compound 0.253 µM): 0.357
- relative viability ([3]; first compound 0.8 µM): 0.308
- relative viability ([3]; first compound 2.53 µM): 0.309
- relative viability ([3]; first compound 8 µM): 0.263

Cell Line: IA-LM
- relative viability ([2]; first compound 0.08 µM): 0.803
- relative viability ([2]; first compound 0.8 µM): 0.705
- relative viability ([2]; first compound 2.53 µM): 0.511
- relative viability ([2]; first compound 8 µM): 0.494

Cell Line: LK-2
- relative viability ([1]; first compound 0.01 µM): 0.336
- relative viability ([1]; first compound 0.03162 µM): 0.243
- relative viability ([1]; first compound 0.1 µM): 0.289
- relative viability ([1]; first compound 0.3162 µM): 0.306
- relative viability ([1]; first compound 1 µM): 0.263
- relative viability ([3]; first compound 0.08 µM): 0.298
- relative viability ([3]; first compound 0.253 µM): 0.273
- relative viability ([3]; first compound 0.8 µM): 0.304
- relative viability ([3]; first compound 2.53 µM): 0.204
- relative viability ([3]; first compound 8 µM): 0.563
- relative viability ([4]; first compound 0.01 µM): 0.183
- relative viability ([4]; first compound 0.03162 µM): 0.183
- relative viability ([4]; first compound 0.1 µM): 0.132
- relative viability ([4]; first compound 0.3162 µM): 0.151
- relative viability ([4]; first compound 1 µM): 0.175

Cell Line: NCI-H358
- relative viability ([1]; first compound 0.01 µM): 0.155
- relative viability ([1]; first compound 0.03162 µM): 0.158
- relative viability ([1]; first compound 0.1 µM): 0.166
- relative viability ([1]; first compound 0.3162 µM): 0.161
- relative viability ([1]; first compound 1 µM): 0.133
- relative viability ([3]; first compound 0.08 µM): 0.233
- relative viability ([3]; first compound 0.253 µM): 0.22
- relative viability ([3]; first compound 0.8 µM): 0.208
- relative viability ([3]; first compound 2.53 µM): 0.249
- relative viability ([3]; first compound 8 µM): 0.225
- relative viability ([4]; first compound 0.01 µM): 0.21
- relative viability ([4]; first compound 0.03162 µM): 0.299
- relative viability ([4]; first compound 0.1 µM): 0.37
- relative viability ([4]; first compound 0.3162 µM): 0.342
- relative viability ([4]; first compound 1 µM): 0.186

Cell Line: NCI-H522
- relative viability ([1]; first compound 0.01 µM): 0.818
- relative viability ([1]; first compound 0.1 µM): 0.823
- relative viability ([1]; first compound 0.3162 µM): 0.887
- relative viability ([1]; first compound 1 µM): 0.879
- relative viability ([3]; first compound 0.08 µM): 0.702
- relative viability ([3]; first compound 0.253 µM): 0.63
- relative viability ([3]; first compound 0.8 µM): 0.708
- relative viability ([3]; first compound 2.53 µM): 0.801
- relative viability ([3]; first compound 8 µM): 0.677
- relative viability ([4]; first compound 0.01 µM): 1.18
- relative viability ([4]; first compound 0.03162 µM): 1.16
- relative viability ([4]; first compound 0.1 µM): 1.05
- relative viability ([4]; first compound 0.3162 µM): 1.13
- relative viability ([4]; first compound 1 µM): 0.94

Cell Line: NCI-H1299
- relative viability ([2]; first compound 0.08 µM): 0.973
- relative viability ([2]; first compound 0.253 µM): 0.983
- relative viability ([2]; first compound 0.8 µM): 0.91
- relative viability ([2]; first compound 2.53 µM): 1.04
- relative viability ([2]; first compound 8 µM): 0.885

Cell Line: NCI-H1395
- relative viability ([1]; first compound 0.01 µM): 0.415
- relative viability ([1]; first compound 0.03162 µM): 0.404
- relative viability ([1]; first compound 0.1 µM): 0.404
- relative viability ([1]; first compound 0.3162 µM): 0.395
- relative viability ([1]; first compound 1 µM): 0.426
- relative viability ([3]; first compound 0.08 µM): 0.666
- relative viability ([3]; first compound 0.8 µM): 0.685
- relative viability ([3]; first compound 2.53 µM): 0.677
- relative viability ([3]; first compound 8 µM): 0.761
- relative viability ([4]; first compound 0.01 µM): 0.626
- relative viability ([4]; first compound 0.03162 µM): 0.682
- relative viability ([4]; first compound 0.1 µM): 0.864
- relative viability ([4]; first compound 0.3162 µM): 0.506
- relative viability ([4]; first compound 1 µM): 0.611
